According to US8580918B2, “Peptidic GLP-2 agonists” (Ferring B.V., priority 2009, dated 2013):
Where a SMILES comes first, the peptide text is derived from it. [ ]: non-standard residue; d: D form. The star is where a group is joined. X2 = NC(=O)COCC(=O)NCCCOCCOCCOCCCN*; NH(4-picolyl) = c1cc(CN*)ccn1; PEG4 = NCCOCCOCCOCCOCCC(=O)O; Nle = CCCC[C@H](N)C(=O)O; NHBn = c1ccc(CN*)cc1; NHiBu = CC(C)CN*

assay: Pharmacokinetics in rats after intravenous bolus injection (systemic clearance); assay type: in vivo; settings: rat, plasma, 0.2 mg FB/kg, adult male Sprague-Dawley rats, i.v. bolus, dose 0.20 mg FB/kg, read-out: CL (ml/kg/min) Average
How it was run: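 Adult male Sprague-Dawley rats (3-4, doubly cannulated) given IV jugular bolus at 0.1-1.0 mg/kg; serial carotid blood to K2EDTA plasma, LC/MS/MS quantitation. CL = dose/kg divided by AUC∞ (noncompartmental, trapezoid); mean ± SD.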

First: CCCC[C@H](NC(=O)[C@H](CCC(=O)O)NC(=O)[C@H](CC(=O)O)NC(=O)[C@H](CO)NC(=O)[C@H](Cc1ccccc1)NC(=O)[C@H](CO)NC(=O)CNC(=O)[C@H](CC(=O)O)NC(=O)CNC(=O)[C@@H](N)Cc1c[nH]cn1)C(=O)N[C@H](Cc1ccccc1)C(=O)N[C@H](C(=O)N[C@H](C(=O)N[C@@H](CC(C)C)C(=O)N[C@@H](CC(=O)O)C(=O)N[C@@H](CC(C)C)C(=O)N[C@@H](CC(C)C)C(=O)N[C@@H](C)C(=O)N[C@@H](C)C(=O)N[C@@H](CCCNC(=N)N)C(=O)N[C@@H](CC(=O)O)C(=O)N[C@@H](Cc1ccccc1)C(=O)N[C@H](C(=O)N[C@@H](CC(N)=O)C(=O)N[C@@H](Cc1c[nH]c2ccccc12)C(=O)N[C@@H](CC(C)C)C(=O)N[C@H](C(=O)N[C@@H](CCC(N)=O)C(=O)N[C@H](C(=O)N[C@@H](CCCCN)C(=O)N[C@H](C(=O)N[C@H](C(=O)N[C@@H](CC(=O)O)C(=O)NCc1ccncc1)[C@@H](C)O)[C@@H](C)CC)[C@@H](C)O)[C@@H](C)CC)[C@@H](C)CC)[C@@H](C)CC)[C@@H](C)O [Compound 54, [Gly2,Nle10,D-Phe11,Leu16] hGLP-2(1-33)-NH-4-Pic] (H-HGDGSFSDE[Nle][dF]TILDLLAARDFINWLIQTKITD-{NH(4-picolyl)})
Second: CCCC[C@H](NC(=O)[C@H](CCC(=O)O)NC(=O)[C@H](CC(=O)O)NC(=O)[C@H](CO)NC(=O)[C@H](Cc1ccccc1)NC(=O)[C@H](CO)NC(=O)CNC(=O)[C@H](CC(=O)O)NC(=O)CNC(=O)[C@@H](N)Cc1c[nH]cn1)C(=O)N[C@H](Cc1ccccc1)C(=O)N[C@H](C(=O)N[C@H](C(=O)N[C@@H](CC(C)C)C(=O)N[C@@H](CC(=O)O)C(=O)N[C@@H](CC(C)C)C(=O)N[C@@H](CC(C)C)C(=O)N[C@@H](C)C(=O)N[C@@H](C)C(=O)N[C@@H](CCCNC(=N)N)C(=O)N[C@@H](CC(=O)O)C(=O)N[C@@H](Cc1ccccc1)C(=O)N[C@H](C(=O)N[C@@H](CC(N)=O)C(=O)N[C@@H](Cc1c[nH]c2ccccc12)C(=O)N[C@@H](CC(C)C)C(=O)N[C@H](C(=O)N[C@@H](CCC(N)=O)C(=O)N[C@H](C(=O)N[C@@H](CCCCN)C(=O)N[C@H](C(=O)N[C@H](C(=O)N[C@@H](CC(=O)O)C(=O)NCc1ccccc1)[C@@H](C)O)[C@@H](C)CC)[C@@H](C)O)[C@@H](C)CC)[C@@H](C)CC)[C@@H](C)CC)[C@@H](C)O [Compound 58, [Gly2,Nle10,D-Phe11,Leu16] hGLP-2(1-33)-NH-Benzyl] (H-HGDGSFSDE[Nle][dF]TILDLLAARDFINWLIQTKITD-NHBn)
The clearance of the first is 2.7-fold higher: 0.27 mL/kg/min for the first, 0.1 mL/kg/min for the second.

`CCCC[C@H](NC(=O)[C@H](CCC(=O)O)NC(=O)[C@H](CC(=O)O)NC(=O)[C@H](CO)NC(=O)[C@H](Cc1ccccc1)NC(=O)[C@H](CO)NC(=O)CNC(=O)[C@H](CC(=O)O)NC(=O)CNC(=O)[C@@H](N)Cc1cnc[nH]1)C(=O)N[C@H](Cc1ccccc1)C(=O)N[C@H](C(=O)N[C@H](C(=O)N[C@@H](CC(C)C)C(=O)N[C@@H](CC(=O)O)C(=O)N[C@@H](CC(C)C)C(=O)N[C@@H](CC(C)C)C(=O)N[C@@H](C)C(=O)N[C@@H](C)C(=O)N[C@@H](CCCNC(=N)N)C(=O)N[C@@H](CC(=O)O)C(=O)N[C@@H](Cc1ccccc1)C(=O)N[C@H](C(=O)N[C@@H](CC(N)=O)C(=O)N[C@@H](Cc1c[nH]c2ccccc12)C(=O)N[C@@H](CC(C)C)C(=O)N[C@H](C(=O)N[C@@H](CCC(N)=O)C(=O)N[C@H](C(=O)N[C@@H](CCCCN)C(=O)N[C@H](C(=O)N[C@H](C(=O)N[C@@H](CC(=O)O)C(=O)NCCOCCOCCOCCOCCC(N)=O)[C@@H](C)O)[C@@H](C)CC)[C@@H](C)O)[C@@H](C)CC)[C@@H](C)CC)[C@@H](C)CC)[C@@H](C)O` [Compound 55, [Gly2,Nle10,D-Phe11,Leu16] hGLP-2(1-33)-NH—((CH2)2O)4—(CH2)2—C(O)—NH2] (H-HGDGSFSDE[Nle][dF]TILDLLAARDFINWLIQTKITD[PEG4]-NH2) and `CCCC[C@H](NC(=O)[C@H](CCC(=O)O)NC(=O)[C@H](CC(=O)O)NC(=O)[C@H](CO)NC(=O)[C@H](Cc1ccccc1)NC(=O)[C@H](CO)NC(=O)CNC(=O)[C@H](CC(=O)O)NC(=O)CNC(=O)[C@@H](N)Cc1c[nH]cn1)C(=O)N[C@H](Cc1ccccc1)C(=O)N[C@H](C(=O)N[C@H](C(=O)N[C@@H](CC(C)C)C(=O)N[C@@H](CC(=O)O)C(=O)N[C@@H](CC(C)C)C(=O)N[C@@H](CC(C)C)C(=O)N[C@@H](C)C(=O)N[C@@H](C)C(=O)N[C@@H](CCCNC(=N)N)C(=O)N[C@@H](CC(=O)O)C(=O)N[C@@H](Cc1ccccc1)C(=O)N[C@H](C(=O)N[C@@H](CC(N)=O)C(=O)N[C@@H](Cc1c[nH]c2ccccc12)C(=O)N[C@@H](CC(C)C)C(=O)N[C@H](C(=O)N[C@@H](CCC(N)=O)C(=O)N[C@H](C(=O)N[C@@H](CCCCN)C(=O)N[C@H](C(=O)N[C@H](C(=O)N[C@@H](CC(=O)O)C(=O)NCCCOCCOCCOCCCNC(=O)COCC(N)=O)[C@@H](C)O)[C@@H](C)CC)[C@@H](C)O)[C@@H](C)CC)[C@@H](C)CC)[C@@H](C)CC)[C@@H](C)O` [Compound 56, [Gly2,Nle10,D-Phe11,Leu16] hGLP-2(1-33)-NH—CH2—((CH2)2O)3—(CH2)3—NHC(O)—CH2—O—CH2—C(O)—NH2] (H-HGDGSFSDE[Nle][dF]TILDLLAARDFINWLIQTKITD-X2) are within 1.5-fold of each other in clearance: 0.23 mL/kg/min for the first, 0.28 mL/kg/min for the second.

Work on `CCCC[C@H](NC(=O)[C@H](CCC(=O)O)NC(=O)[C@H](CC(=O)O)NC(=O)[C@H](CO)NC(=O)[C@H](Cc1ccccc1)NC(=O)[C@H](CO)NC(=O)CNC(=O)[C@H](CC(=O)O)NC(=O)CNC(=O)[C@@H](N)Cc1c[nH]cn1)C(=O)N[C@H](Cc1ccccc1)C(=O)N[C@H](C(=O)N[C@H](C(=O)N[C@@H](CC(C)C)C(=O)N[C@@H](CC(=O)O)C(=O)N[C@@H](CC(C)C)C(=O)N[C@@H](CC(C)C)C(=O)N[C@@H](C)C(=O)N[C@@H](C)C(=O)N[C@@H](CCCNC(=N)N)C(=O)N[C@@H](CC(=O)O)C(=O)N[C@@H](Cc1ccccc1)C(=O)N[C@H](C(=O)N[C@@H](CC(N)=O)C(=O)N[C@@H](Cc1c[nH]c2ccccc12)C(=O)N[C@@H](CC(C)C)C(=O)N[C@H](C(=O)N[C@@H](CCC(N)=O)C(=O)N[C@H](C(=O)N[C@@H](CCCCN)C(=O)N[C@H](C(=O)N[C@H](C(=O)N[C@@H](CC(=O)O)C(=O)NCC(C)C)[C@@H](C)O)[C@@H](C)CC)[C@@H](C)O)[C@@H](C)CC)[C@@H](C)CC)[C@@H](C)CC)[C@@H](C)O` [Compound 57, [Gly2,Nle10,D-Phe11,Leu16] hGLP-2(1-33)-NH-isobutyl] (H-HGDGSFSDE[Nle][dF]TILDLLAARDFINWLIQTKITD-NHiBu) yielded a clearance of 0.17 mL/kg/min.
